Measured values: the NIST ThermoML archive (doi:10.1021/acs.jced.6b00181)

Experiment: xn = mol fraction of the nth substance listed
Conditions: Liquid, Other PVT measurement

C=CC [propene] + CCCCCC
Conditions	mass density [kg/m3]
294.9 K, 1200 kPa, x1 = 0.9003	515.1
294.9 K, 1800 kPa, x1 = 0.9003	516.8
294.9 K, 2800 kPa, x1 = 0.9003	519
294.9 K, 3300 kPa, x1 = 0.9003	520.8
294.9 K, 4400 kPa, x1 = 0.9003	523.3
294.9 K, 10300 kPa, x1 = 0.9003	535.5
294.9 K, 17100 kPa, x1 = 0.9003	547.5
294.9 K, 24100 kPa, x1 = 0.9003	557.1
294.9 K, 30800 kPa, x1 = 0.9003	565.9
294.9 K, 37800 kPa, x1 = 0.9003	573.2
294.9 K, 44200 kPa, x1 = 0.9003	580.2
294.9 K, 51200 kPa, x1 = 0.9003	587.4
294.9 K, 55000 kPa, x1 = 0.9003	591.5
294.9 K, 58300 kPa, x1 = 0.9003	593.8
294.9 K, 67300 kPa, x1 = 0.9003	601.9
295 K, 1400 kPa, x1 = 0.606	568
295 K, 5200 kPa, x1 = 0.606	574.6
295 K, 6800 kPa, x1 = 0.606	577
295 K, 10300 kPa, x1 = 0.606	582.2
295 K, 17200 kPa, x1 = 0.606	592
295 K, 23900 kPa, x1 = 0.606	600
295 K, 30600 kPa, x1 = 0.606	606.9
295 K, 37500 kPa, x1 = 0.606	613.5
295 K, 44500 kPa, x1 = 0.606	619.4
295 K, 51100 kPa, x1 = 0.606	624.9
295 K, 57900 kPa, x1 = 0.606	630
295 K, 63100 kPa, x1 = 0.606	634.3
295 K, 66800 kPa, x1 = 0.606	636.7
295.3 K, 500 kPa, x1 = 0.4466	592.6
295.3 K, 700 kPa, x1 = 0.4466	594.3
295.3 K, 1400 kPa, x1 = 0.4466	595.1
295.3 K, 2100 kPa, x1 = 0.4466	596.8
295.3 K, 2800 kPa, x1 = 0.4466	597.6
295.3 K, 3700 kPa, x1 = 0.4466	598.9
295.3 K, 4800 kPa, x1 = 0.4466	600.6
295.3 K, 6800 kPa, x1 = 0.4466	603.6
295.3 K, 10200 kPa, x1 = 0.4466	607.9
295.3 K, 16900 kPa, x1 = 0.4466	615.3
295.3 K, 24100 kPa, x1 = 0.4466	622.5
295.3 K, 30900 kPa, x1 = 0.4466	629
295.3 K, 38100 kPa, x1 = 0.4466	634.6
295.3 K, 44500 kPa, x1 = 0.4466	640.3
295.3 K, 51600 kPa, x1 = 0.4466	646.2
295.3 K, 58300 kPa, x1 = 0.4466	651.1
295.3 K, 63000 kPa, x1 = 0.4466	654.6
295.3 K, 66500 kPa, x1 = 0.4466	657.1
295.6 K, 700 kPa, x1 = 0.1414	638.3
295.6 K, 1300 kPa, x1 = 0.1414	639.2
295.6 K, 1700 kPa, x1 = 0.8985	516.2
295.6 K, 1900 kPa, x1 = 0.8985	518.5
295.6 K, 2600 kPa, x1 = 0.8985	518.5
295.6 K, 3500 kPa, x1 = 0.1414	642
295.6 K, 3600 kPa, x1 = 0.8985	522.1
295.6 K, 4900 kPa, x1 = 0.8985	524.5
295.6 K, 7000 kPa, x1 = 0.8985	528.5
295.6 K, 8200 kPa, x1 = 0.1414	646.8
295.6 K, 8500 kPa, x1 = 0.8985	532.3
295.6 K, 10100 kPa, x1 = 0.8985	535.7
295.6 K, 10500 kPa, x1 = 0.8985	535.7
295.6 K, 10700 kPa, x1 = 0.1414	649.7
295.6 K, 13800 kPa, x1 = 0.8985	541.2
295.6 K, 14900 kPa, x1 = 0.1414	653.6
295.6 K, 16700 kPa, x1 = 0.8985	546.4
295.6 K, 17200 kPa, x1 = 0.8985	546.4
295.6 K, 20700 kPa, x1 = 0.1414	659.5
295.6 K, 23200 kPa, x1 = 0.8985	555.2
295.6 K, 24000 kPa, x1 = 0.1414	662.5
295.6 K, 27200 kPa, x1 = 0.1414	665.6
295.6 K, 29100 kPa, x1 = 0.8985	562.8
295.6 K, 30800 kPa, x1 = 0.1414	668.6
295.6 K, 34400 kPa, x1 = 0.8985	568.4
295.6 K, 37100 kPa, x1 = 0.1414	673.8
295.6 K, 38100 kPa, x1 = 0.8985	573.9
295.6 K, 41000 kPa, x1 = 0.8985	576.4
295.6 K, 42700 kPa, x1 = 0.1414	678.5
295.6 K, 44800 kPa, x1 = 0.8985	581.2
295.6 K, 47800 kPa, x1 = 0.1414	682.2
295.6 K, 48000 kPa, x1 = 0.1414	682.8
295.6 K, 48200 kPa, x1 = 0.1414	682.8
295.6 K, 48200 kPa, x1 = 0.8985	584.2
295.6 K, 48300 kPa, x1 = 0.1414	682.8
295.6 K, 51600 kPa, x1 = 0.8985	588
295.6 K, 52000 kPa, x1 = 0.1414	685.5
295.6 K, 54900 kPa, x1 = 0.8985	590.4
295.6 K, 55300 kPa, x1 = 0.1414	688.2
295.6 K, 55600 kPa, x1 = 0.1414	688.2
295.6 K, 58000 kPa, x1 = 0.1414	689.8
295.6 K, 58400 kPa, x1 = 0.8985	594.2
295.6 K, 61800 kPa, x1 = 0.8985	596.6
295.6 K, 61900 kPa, x1 = 0.1414	692.5
295.6 K, 66100 kPa, x1 = 0.1414	695.3
295.6 K, 66200 kPa, x1 = 0.1414	695.3
295.6 K, 67300 kPa, x1 = 0.8985	601.4
324.4 K, 900 kPa, x1 = 0.4466	560.3
324.4 K, 1400 kPa, x1 = 0.4466	561.7
324.4 K, 1900 kPa, x1 = 0.4466	562.5
324.4 K, 2100 kPa, x1 = 0.4466	563.2
324.4 K, 3400 kPa, x1 = 0.4466	565.5
324.4 K, 4900 kPa, x1 = 0.4466	568.9
324.4 K, 6800 kPa, x1 = 0.4466	571.9
324.4 K, 10200 kPa, x1 = 0.4466	577.8
324.4 K, 17200 kPa, x1 = 0.4466	588.5
324.4 K, 23800 kPa, x1 = 0.4466	597.6
324.4 K, 30700 kPa, x1 = 0.4466	606.1
324.4 K, 37800 kPa, x1 = 0.4466	614
324.4 K, 44700 kPa, x1 = 0.4466	620.3
324.4 K, 51400 kPa, x1 = 0.4466	626.2
324.4 K, 58300 kPa, x1 = 0.4466	631.8
324.4 K, 63700 kPa, x1 = 0.4466	636
324.4 K, 67500 kPa, x1 = 0.4466	638.9
324.6 K, 700 kPa, x1 = 0.1414	611.8
324.6 K, 1200 kPa, x1 = 0.1414	612.7
324.6 K, 1300 kPa, x1 = 0.606	533.2
324.6 K, 1800 kPa, x1 = 0.606	534.5
324.6 K, 1900 kPa, x1 = 0.1414	614
324.6 K, 2500 kPa, x1 = 0.606	536.2
324.6 K, 3400 kPa, x1 = 0.606	538.3
324.6 K, 3600 kPa, x1 = 0.1414	616.6
324.6 K, 5000 kPa, x1 = 0.1414	618.8
324.6 K, 5300 kPa, x1 = 0.606	542.5
324.6 K, 6800 kPa, x1 = 0.606	545.6
324.6 K, 7100 kPa, x1 = 0.1414	621.9
324.6 K, 8900 kPa, x1 = 0.1414	624.1
324.6 K, 9600 kPa, x1 = 0.1414	625.5
324.6 K, 10300 kPa, x1 = 0.1414	625.9
324.6 K, 10300 kPa, x1 = 0.606	552.4
324.6 K, 12300 kPa, x1 = 0.1414	628.6
324.6 K, 13600 kPa, x1 = 0.1414	630
324.6 K, 17100 kPa, x1 = 0.1414	634.1
324.6 K, 17400 kPa, x1 = 0.606	564.6
324.6 K, 19700 kPa, x1 = 0.1414	637.3
324.6 K, 23900 kPa, x1 = 0.606	573.8
324.6 K, 24100 kPa, x1 = 0.1414	642
324.6 K, 27400 kPa, x1 = 0.1414	644.9
324.6 K, 30700 kPa, x1 = 0.1414	648.2
324.6 K, 30700 kPa, x1 = 0.606	583.4
324.6 K, 34300 kPa, x1 = 0.1414	651.6
324.6 K, 37500 kPa, x1 = 0.1414	654.6
324.6 K, 37900 kPa, x1 = 0.606	592.4
324.6 K, 44300 kPa, x1 = 0.1414	660.5
324.6 K, 44400 kPa, x1 = 0.606	599.1
324.6 K, 47800 kPa, x1 = 0.1414	663.5
324.6 K, 51300 kPa, x1 = 0.1414	666.6
324.6 K, 51400 kPa, x1 = 0.606	606.4
324.6 K, 55200 kPa, x1 = 0.1414	669.7
324.6 K, 58100 kPa, x1 = 0.606	612.2
324.6 K, 58400 kPa, x1 = 0.1414	672.2
324.6 K, 62700 kPa, x1 = 0.1414	675.4
324.6 K, 63000 kPa, x1 = 0.606	616.2
324.6 K, 66500 kPa, x1 = 0.1414	678.5
324.6 K, 67200 kPa, x1 = 0.606	619.4
325.1 K, 2100 kPa, x1 = 0.9003	470.3
325.1 K, 2800 kPa, x1 = 0.9003	473.5
325.1 K, 3700 kPa, x1 = 0.9003	476.8
325.1 K, 7000 kPa, x1 = 0.9003	489.5
325.1 K, 10400 kPa, x1 = 0.9003	499.8
325.1 K, 16500 kPa, x1 = 0.9003	515.1
325.1 K, 24000 kPa, x1 = 0.9003	530.6
325.1 K, 30900 kPa, x1 = 0.9003	542.4
325.1 K, 37500 kPa, x1 = 0.9003	551.5
325.1 K, 44500 kPa, x1 = 0.9003	559.6
325.1 K, 51500 kPa, x1 = 0.9003	567.6
325.1 K, 58300 kPa, x1 = 0.9003	574.5
325.1 K, 63700 kPa, x1 = 0.9003	580.2
325.1 K, 67200 kPa, x1 = 0.9003	583.3
325.5 K, 2400 kPa, x1 = 0.8985	471.9
325.5 K, 2800 kPa, x1 = 0.8985	474.2
325.5 K, 3500 kPa, x1 = 0.8985	476.7
325.5 K, 4700 kPa, x1 = 0.8985	481.2
